Reference: patent US6916789B2, “Peyer's patch and/or M-cell targeting ligands” (Merrion Research I Limited, priority 2001, dated 2005)
Where no end group is shown, it is not given here. [ ]: non-standard residue; d: D form.

What was measured:
[1] = tested on: Caco-2 homogenates; assay: Synthetic peptide ELISA-based binding to Caco-2 homogenates (streptavidin-peroxidase detection); set-up: species or system human; conditions: for peptide binding: biotin-tagged peptides, Example 5; for binder category / binding to epithelium: ELISA, intestinal epithelial tissue, FIGS. 17A-17B Caco-2 homogenates; for Binding Assay results (Caco-2), category / Binding Assay results (Caco-2), Kd: Tables 9 and 10
Description: In order to prepare the Caco-2 cell membrane and cytosolic fractions, confluent Caco-2 cell monolayers (grown in 75 cm^2 flasks for up to 1 week at 37° C. and 5% CO2) were washed twice in Dulbecco's PBS (DPBS). The cell monolayers were then treated with 10 mM EDTA-DPBS for 5-10 minutes at 37° C. and the cells were harvested by centrifugation at 1000 rpm for 5 minutes. The cells were then washed 3×in DPBS. The cell pellet was resuspended in 3 volumes of ice-cold HED buffer (20 mM HEPES (pH 7.67), 1 mM EGTA, 0,5 mM dithiothreitol, 1 mM phenylmethylsuphonyl fluoride (PMSF)) and the cells were allowed to swell for 5 minutes on ice. The cells were then homogenized for 30 seconds. The cell homogenates were then centrifuged in hard walled tubes at 40,000 rpm for 45 minutes at 4° C. (ultracentrifuge Ti90 rotor). The supernatant was removed and the pellet resuspended in HEDG buffer (20 mM HEPES (pH 7.67), 1 mM EGTA, 0.5 mM dithiothreithol, 100 mM NaCl, 10% glycerol, 1 mM PMSF). Three volumes of buffer were then added and the pellet was resuspended and centrifuged again at 1000 rpm for 2 minutes. The supernatant was removed and stored on ice. The procedure was repeated adding the second supernatant to the first and then the procedure was repeated 2-3 more times. The protein concentration was determined using the Bio-Rad protein assay. All fractions were stored at −80° C.
(§1) Peptide sequences (SEQ ID NOs: 3, 4, 5, 7, 8, 9, 10, 11, 14, 15, 16, 17, 19, 20, 26, 28, 29, 30) were synthesized with biotin tags at the amino terminal for all peptides and additionally at the carboxyl terminal for SEQ ID NOs:8 and 14. Binding of these peptides to Caco-2 homogenates and/or to rat intestinal tissue homogenates was tested in an ELISA-based assay with streptavidin-peroxidase detection. […] (See FIGS. 13A-13N).

[2] = tested on: intestinal tissue of different species namely dog, mouse, pig, and rat; assay: Peptide binding to intestinal tissue of different species; conditions: biotin-tagged peptides
Description: (§2) Peptide sequences (SEQ ID NOs:3, 7, 8, 9 and 14) were synthesized with biotin tags at the amino terminal for all peptides and additionally at the carboxyl terminal for SEQ ID NOs:8 and 14. Binding of these peptides to intestinal tissue of different species namely dog, mouse, pig, and rat was performed. […] (See FIGS. 14A-14H). Binding of peptides (SEQ ID NOs:8 and 14) to rat tissue from different organs, namely liver, lung, mesenteric lymph nodes, spleen and kidney, was performed. […] (See FIGS. 15A-15E).

[3] = tested on: rat intestinal tissue homogenates; assay: Synthetic peptide ELISA-based binding to rat intestinal tissue homogenates; conditions: biotin-tagged peptides; Example 5
Description: The rat tissue homogenates were prepared by harvesting rat GI and Peyer's patch and storing them on ice until needed, or 1-2 hours. The tissue was then put into homogenization buffer (250 mM Sucrose, 12 mM Tris, 16 mM EDTA) with protease inhibitor cocktail. A hand-held homogenizer was used to break up the tissue for 3-4 minutes. The contents of the homogenizer were then transferred to microfuge tubes and spun at 1500 rpm for 1 minute. The supernatant was taken off and measured for protein content using the Bio-Rad Assay. Specificity studies were then run to allow differentiation between Peyer's patch specific and non-specific binding properties. The 55 high-binding clones were assayed for binding to rat small intestinal homogenates (i.e., homogenate membrane fractions) with and without Peyer's Patch tissue (i.e., tissue homogenate membrane fractions) present. (See FIGS. 6 and 7). The negative control was M13 mp18 with no peptide insert.
as §1

[4] = tested on: Caco-2 homogenates; assay: Peptide coated particles ELISA-based binding to Caco-2 homogenates; set-up: species or system human; conditions: for binding of peptide coated particles: peptide adsorbed to streptavidin particles (0.289 μm)
Description: Several phage-derived peptides (SEQ ID NOs: 25, 31, 32, 33, and 40) were adsorbed to streptavidin particles (0.289 μm). Peptide coated particles were tested in an ELISA-based assay for binding to Caco-2 homogenates. […] In addition, when one double-mutant peptide ligand (SEQ ID NO:33), is adsorbed to polystyrene particles binding that is approximately 60% of that of the parent peptide is observed (See FIGS. 19A-19B).

[5] = tested on: rat tissue from different organs, namely liver, lung, mesenteric lymph nodes, spleen and kidney; assay: Peptide binding to rat tissue from different organs
Description: as §2

[6] = tested on: human Peyer's patch tissue sections; assay: Biotinylated peptide binding to human Peyer's patch tissue sections (streptavidin-HRP/DAB staining); conditions: biotinylated peptide at 50 μg/ml; for binding to human Peyer's patch: 1 hour
Description: Three synthetic peptides (SEQ ID NO:8, 25 and 14) derived from isolated clones were biotinylated and tested for binding to human Peyer's patch tissue sections. In addition, a known negative binding peptide was included as a negative control. Paraffin sections of human Peyer's patch were deparaffinized and […]. The sections were rinsed in PBS. The antigenic determinants on the tissue were unmasked by microwaving in 2.1 g/L acetic acid for 5 minutes and allowed to cool at room temperature for 20 minutes while covered in plastic wrap. After 20 minutes, the sections were washed in PBS and then blocked in endogenous peroxidase in 1% hydrogen peroxide in methanol for 10 minutes. The rinse was repeated and the sections were blocked with 2% BSA in PBS for 20 minutes at room temperature. The sections were incubated with peptide at 50 μg/ml in […] in PBS for 1 hour at room temperature. Control tissue was treated with BSA alone. The sections were rinsed with 0.05% Tween in PBS. Streptavidin-HRP at 1/500 in 2% BSA was added for 30-60 minutes at room temperature. Again, the sections were rinsed with PBS/Tween. DAB substrate was added for up to 5 minutes, and the reaction was stopped by immersing the slides in water. The sections were counterstained using Haematoxlin for 50 seconds and then rinsed in water. The slides were differentiated in 1% acid alcohol for 5-10 seconds and then rinsed in water. The slides were mounted using aqueous mounting medium and a cover slip.

[7] = tested on: intestinal epithelial tissue; assay: Cysteine binding studies: co-incubation with free L-cysteine; conditions: L-cysteine 100 mM to 0.003 mM; peptide 6.25-25 μg/ml
Description: FIG. 16A is a graph of the binding of SEQ ID NO:8 at a concentration of 25 μg/ml to intestinal epithelial tissue in the presence of varying concentrations of free L-cysteine as a function of absorbance at 650 nm.
Peptide SEQ ID NO:8, at a concentration of 6.25 μg/ml, 12.5 μg/ml and 25 μg/ml, was co-incubated with L-cysteine over the concentration range of 100 mM to 0.003 mM. Peptide SEQ ID NO:25, at a concentration of 6.25 μg/ml was co-incubated with L-cysteine over the concentration range of 100 mM to 0.003 mM.

[8] = tested on: M-cells; assay: Peptide coated fluorescent polystyrene particles in mouse intestinal loops, confocal microscopy; type: in vivo; conditions: fluorescent polystyrene particles (0.289 μm), 30 minutes incubation in loops
Description: Biotinylated SEQ ID NO:40 was adsorbed to the surface of fluorescent polystyrene particles (0.289 μm) using routine methodologies at room temperature. Mouse intestinal loops containing one or more polystyrene suspensions (typically 300 μl containing 5.0×10^10 particles per ml) were incubated for 30 minutes. The Peyer's patches were excised, fixed in methanol and the M cells were counter-stained with UEA1-rhodamine for subsequent analysis by confocal microscopy. Stained tissues were examined on a BioRad MRC 600 confocal laser-scanning microscope.

binder category / binding to epithelium [1] | Binding Assay results (Caco-2), Kd [1] | Substance | Binding Assay results (Caco-2), category [1] | also measured
– | – | DYDSLSWRSTLH (polypeptide ligand) [SEQ ID NO:3] | – | peptide binding [1]: High binding; differences in binding profiles to tissue of different species [2]: No major differences; peptide binding [3]: High binding
– | – | DYDSLSWRSTLHGGHESSH (polypeptide ligand) [SEQ ID NO:43] | – | effect of added Zinc-binding motif (HESSH) on binding ([1]; compared with SEQ ID NO:3): Enhanced binding
– | – | KPAYTHEYRWLA (polypeptide ligand) [SEQ ID NO:7] | – | differences in binding profiles to tissue of different species [2]: No major differences
binding to the epithelium is abrogated | – | LETTAASLAYPS (polypeptide ligand) [SEQ ID NO:33] | No binding | binding relative to that of the parent peptide ([4]; peptide adsorbed to polystyrene particles): approximately 60%; binding of peptide coated particles [4]: Binding was retained
binding is still retained | (Kd˜9 μg/ml) | LETTAASLCYPS [SEQ ID NO:31] | Medium binder | binding of peptide coated particles [4]: Binding was retained
binding is still retained | (Kd˜8 μg/ml) | LETTCASLAYPS [SEQ ID NO:32] | Medium binder | binding of peptide coated particles [4]: Binding was retained
medium binder | – | LETTCASLCYPS (polypeptide ligand) [SEQ ID NO:8] | Medium binder | differences in binding profiles to tissues of different organs [5]: No major differences; effect of biotin tag at amino or carboxyl end on binding affinities [1]: No differences; peptide binding [1]: High binding; differences in binding profiles to tissue of different species [2]: No major differences; staining localisation [6]: positive staining on the apical side of human enterocytes; binding to human Peyer's patch [6]: Positive binding; peptide binding [3]: High binding; effect of free L-cysteine on peptide binding [7]: prevented binding
– | (Kd˜8 μg/ml) | LETTCASLCYPS [8 biotinylated derivative] | Medium binder | –
– | – | LETTSASLSYPS (polypeptide ligand) [SEQ ID NO:34] | No binding | –
– | – | LGTDWHSVSYTL (polypeptide ligand) [SEQ ID NO:9] | – | differences in binding profiles to tissue of different species [2]: No major differences
low to medium binder | – | NTRIPEPIRFYM (polypeptide ligand) [SEQ ID NO:14] | – | differences in binding profiles to tissues of different organs [5]: No major differences; differences in binding profiles to tissue of different species [2]: No major differences; binding to human Peyer's patch [6]: negative for binding
medium binder | – | VCSNMYFSCRLS (polypeptide ligand) [SEQ ID NO:24] | – | peptide binding [1]: High binding; peptide binding [3]: High binding
binding to the epithelium is abrogated | – | VPPHPMTYSAQY (polypeptide ligand) [SEQ ID NO:38] | No binding | –
highest binder | – | VPPHPMTYSCQY (polypeptide ligand) [SEQ ID NO:25] | – | peptide binding [1]: High binding; binding of peptide coated particles [4]: Binding was retained; staining localisation [6]: positive staining on the apical side of human enterocytes; binding to human Peyer's patch [6]: Positive binding; peptide binding [3]: High binding; effect of free L-cysteine on peptide binding [7]: prevented binding
– | (Kd < 5 μg/ml) | VPPHPMTYSCQY [25 biotinylated derivative] | High binder | –
– | – | VPPHPMTYSSQY (polypeptide ligand) [SEQ ID NO:39] | No binding | –
– | (Kd˜30.53 μg/ml) | lettcaslcyps ([dL][dE][dT][dT][dC][dA][dS][dL][dC][dY][dP][dS]; cysteine pairing not given here) [SEQ ID NO:36] | – | –
– | (Kd˜13.91 μg/ml) | spyclsacttel ([dS][dP][dY][dC][dL][dS][dA][dC][dT][dT][dE][dL]; cysteine pairing not given here) [SEQ ID NO:35] | Medium binder | –
retained high binding | (Kd˜10 μg/ml) | vpphpmtyscqy ([dV][dP][dP][dH][dP][dM][dT][dY][dS][dC][dQ][dY]) [SEQ ID NO:37] | – | –
retained high binding | (Kd˜10 μg/ml) | yqcsytmphppv ([dY][dQ][dC][dS][dY][dT][dM][dP][dH][dP][dP][dV]) [SEQ ID NO:40] | – | binding of peptide coated particles [4]: Binding was retained; binding and uptake of peptide coated particles [8]: binding and uptake into M-cells

Substance | binder category / binding to epithelium [1] | Binding Assay results (Caco-2), Kd [1] | Binding Assay results (Caco-2), category [1] | also measured
LETTCASLCYPS [8 dansyl-lysine derivative] | – | (Kd˜1 μg/ml) | High binder | –
VPPHPMTYSCQY [25 Dansyl-lysine derivative] | – | (Kd < 1 μg/ml) | – | –
